Like-named read-outs stand apart in the source and are kept apart here.
Experiments:
Assay in all cases: NCI in vitro anticancer drug discovery screen (sulforhodamine B)
Assay type in all cases: cell-based
[1] = tested on: SF-539; settings: Homo sapiens, SF-539, brain, 48 hr
Procedure: (§1) (c) Testing of Compound A against a much larger cell line panel in the NCI in vitro anticancer screen (Table 7) confirmed the results described above. […] Consistent with the data in Table 5 the cytotoxic effects measured after 2 days of culture were more varied with LC50 values ranging from 10 nM for COLO-205 colon tumour cells to ˜90 μM for 786-0 renal tumour cells.

[2] = tested on: IGROVI; settings: Homo sapiens, ovarian, 48 hr
Procedure: as §1

[3] = tested on: ACHN; settings: Homo sapiens, renal, 48 hr
Procedure: as §1

[4] = tested on: MDA-MB-435; settings: Homo sapiens, MDA-MB-435, breast, 48 hr
Procedure: as §1

[5] = tested on: RXF 393; settings: Homo sapiens, RXF 393, renal, 48 hr
Procedure: as §1

[6] = tested on: COLO-205; settings: Homo sapiens, COLO-205, colon, 48 hr
Procedure: as §1

[7] = tested on: MDA-N; settings: Homo sapiens, breast, 48 hr
Procedure: as §1

[8] = tested on: SK-MEL-2; settings: Homo sapiens, SK-MEL-2, melanoma, 48 hr
Procedure: as §1

[9] = tested on: NCI-11522; settings: Homo sapiens, NCI-11522, lung, 48 hr
Procedure: as §1

[10] = tested on: MCF7; settings: Homo sapiens, MCF7, breast, 48 hr
Procedure: as §1

[11] = tested on: MALME-3M; settings: Homo sapiens, melanoma, 48 hr
Procedure: as §1

[12] = tested on: SF-268; settings: Homo sapiens, SF-268, brain, 48 hr
Procedure: as §1

[13] = tested on: NCI-H226; settings: Homo sapiens, NCI-H226, lung, 48 hr
Procedure: as §1

[14] = tested on: OVCAR-5; settings: Homo sapiens, OVCAR-5, ovarian, 48 hr
Procedure: as §1

[15] = tested on: SNB-75; settings: Homo sapiens, SNB-75, brain, 48 hr
Procedure: as §1

[16] = tested on: EKVX; settings: Homo sapiens, lung, 48 hr
Procedure: as §1

[17] = tested on: 786-0; settings: Homo sapiens; for CC50: 786-0, 48 h, read-out: LC50 (the source's name)
Procedure: as §1

[18] = tested on: A498; settings: Homo sapiens, A498, renal, 48 hr
Procedure: as §1

[19] = tested on: HT29; settings: Homo sapiens, HT-29, HT29, colon, 48 hr
Procedure: as §1

[20] = tested on: 8K-MEL-5; settings: Homo sapiens, 8K-MEL-5, melanoma, 48 hr
Procedure: as §1

[21] = tested on: UACC-62; settings: Homo sapiens, UACC-62, melanoma, 48 hr
Procedure: as §1

[22] = tested on: SK-OV-3; settings: Homo sapiens, SK-OV-3, ovarian, 48 hr
Procedure: as §1

[23] = tested on: BT-549; settings: Homo sapiens, BT-549, breast, 48 hr
Procedure: as §1

[24] = tested on: SF-295; settings: Homo sapiens, SF-295, brain, 48 hr
Procedure: as §1

[25] = tested on: OVCAR-4; settings: Homo sapiens, OVCAR-4, ovarian, 48 hr
Procedure: as §1

[26] = tested on: OVCAR-8; settings: Homo sapiens, OVCAR-8, ovarian, 48 hr
Procedure: as §1

[27] = tested on: MDA-MB-231/ATCC; settings: Homo sapiens, breast, 48 hr
Procedure: as §1

[28] = tested on: SK-MEL-28; settings: Homo sapiens, SK-MEL-28, melanoma, 48 hr
Procedure: as §1

[29] = tested on: NCI-H460; settings: Homo sapiens, NCI-H460, lung, 48 hr
Procedure: as §1

[30] = tested on: M14; settings: Homo sapiens, M14, melanoma, 48 hr
Procedure: as §1

[31] = tested on: LOX IMV1; settings: Homo sapiens, LOX IMV1, melanoma, 48 hr
Procedure: as §1

[32] = read-out: LC50 (the source's name)

## COC(=O)[C@H]1[C@@H](O)[C@@]2(O)c3c(OC)cc(OC4OC(C(O)CO)COC4OC)cc3O[C@@]2(c2ccc(OC)cc2)[C@@H]1c1ccccc1 (single isomer, unassigned) [Compound A]
[1]
  GI50: < 10 nM
[1]; [32]
  CC50: 1100 nM
[2]
  GI50: < 10 nM
[2]; [32]
  CC50: 2600 nM
[3]
  GI50: < 10 nM
[3]; [32]
  CC50: 31600 nM
[4]
  GI50: < 10 nM
[4]; [32]
  CC50: 45 nM
[5]
  GI50: < 10 nM
[5]; [32]
  CC50: 1640 nM
[6]
  GI50: < 10 nM
[6]; [32]
  CC50: 10 nM
[7]
  GI50: < 10 nM
[7]; [32]
  CC50: 543 nM
[8]
  GI50: < 10 nM
[8]; [32]
  CC50: 19100 nM
[9]
  GI50: < 10 nM
[9]; [32]
  CC50: 2400 nM
[10]
  GI50: < 10 nM
[10]; [32]
  CC50: 1000 nM
[11]
  GI50: < 10 nM
[11]; [32]
  CC50: 24000 nM
[12]
  GI50: < 10 nM
[12]; [32]
  CC50: 1000 nM
[13]
  GI50: < 10 nM
[13]; [32]
  CC50: 193 nM
[14]
  GI50: < 10 nM
[14]; [32]
  CC50: 1000 nM
[15]
  GI50: < 10 nM
[15]; [32]
  CC50: 54 nM
[16]
  GI50: < 10 nM
[16]; [32]
  CC50: 23 nM
[17]; 786-0, renal, 48 hr
  CC50: 91200 nM
  GI50: < 10 nM
[17]; 786-0 renal tumour cells, 2 days of culture
  CC50: ~90000 nM
[18]
  GI50: < 10 nM
[18]; [32]
  CC50: 18600 nM
[19]
  GI50: < 10 nM
[19]; [32]
  CC50: 1000 nM
[20]
  GI50: < 10 nM
[20]; [32]
  CC50: 67 nM
[21]
  GI50: < 10 nM
[21]; [32]
  CC50: 30 nM
[22]
  GI50: < 10 nM
[22]; [32]
  CC50: 82200 nM
[23]
  GI50: < 10 nM
[23]; [32]
  CC50: 32700 nM
[24]
  GI50: < 10 nM
[24]; [32]
  CC50: 1230 nM
[25]
  GI50: < 10 nM
[25]; [32]
  CC50: 11 nM
[26]
  GI50: < 10 nM
[26]; [32]
  CC50: 21900 nM
[27]
  GI50: < 10 nM
[27]; [32]
  CC50: 25400 nM
[28]
  GI50: < 10 nM
[28]; [32]
  CC50: 2660 nM
[29]
  GI50: < 10 nM
[29]; [32]
  CC50: 38000 nM
[30]
  GI50: < 10 nM
[30]; [32]
  CC50: 51 nM
[31]
  GI50: < 10 nM
[31]; [32]
  CC50: 1000 nM

— US6710075B2, “Therapeutic compounds and methods” (The Government of the State of Sarawak, Malaysia, priority 2000, dated 2004)
